Experimental data taken from ChEMBL document CHEMBL1201862, “PubChem BioAssay data set” (2004).
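Following 48 hours of exposure in 96-well plates, responses at five concentrations were used to interpolate endpoints linearly. Here, GI50 denotes the concentration required for 50% inhibition of growth.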 Active and inactive are the calls of the source. Cut-off read from the data, not from the text of the source: active = GI50 up to about 1.1 µM and inactive = higher.

How the values were obtained:
Assay in all cases: NCI anticancer screen, dose series, 48 h
TK-10 = tested on: TK-10
Malme-3M = tested on: Malme-3M
IGROV-1 = tested on: IGROV-1
HOP-62 = tested on: HOP-62
KM12 = tested on: KM12
OVCAR-5 = tested on: OVCAR-5
BT-549 = tested on: BT-549
HL-60 = tested on: HL-60
MDA-MB-435 = tested on: MDA-MB-435
RPMI-8226 = tested on: RPMI-8226
U-251 = tested on: U-251
SNB-75 = tested on: SNB-75
MDA-N = tested on: MDA-N
OVCAR-3 = tested on: OVCAR-3
LOX IMVI = tested on: LOX IMVI
HCC 2998 = tested on: HCC 2998
SK-MEL-5 = tested on: SK-MEL-5
PC-3 = tested on: PC-3
EKVX = tested on: EKVX
786-0 = tested on: 786-0

Measured: GI50

O=C(/C=C/c1ccc(OCCSCCCCCCCCCCSCCOc2ccc(/C=C/C(=O)c3ccc(Cl)cc3)cc2)cc1)c1ccc(Cl)cc1
inactive: TK-10 > 100 µM | Malme-3M > 100 µM | IGROV-1 > 100 µM | HOP-62 51.2 µM | KM12 > 100 µM | OVCAR-5 > 100 µM | BT-549 > 100 µM | HL-60 > 100 µM | MDA-MB-435 > 100 µM | RPMI-8226 > 100 µM | U-251 65.8 µM | SNB-75 30.8 µM | MDA-N > 100 µM | OVCAR-3 > 100 µM | LOX IMVI > 100 µM | HCC 2998 > 100 µM | SK-MEL-5 > 100 µM | PC-3 > 100 µM | EKVX > 100 µM | 786-0 75.3 µM

CCOC(=O)CC[C@H](NC(=O)[C@H](N)Cc1ccc(N(CCCl)CCCl)cc1)C(=O)OCC
inactive: TK-10 > 54.5 µM | Malme-3M 3.61 µM | IGROV-1 40.6 µM | HOP-62 21.6 µM | KM12 16 µM | OVCAR-5 26.4 µM | BT-549 26.2 µM | HL-60 5.3 µM | MDA-MB-435 26.9 µM | RPMI-8226 19.6 µM | U-251 16.8 µM | SNB-75 12 µM | MDA-N 23.2 µM | OVCAR-3 8.28 µM | LOX IMVI 11.6 µM | HCC 2998 18.3 µM | SK-MEL-5 10.4 µM | PC-3 20.8 µM | EKVX > 42.6 µM | 786-0 9.55 µM

CC12ON(P(=O)(c3ccccc3)c3ccccc3)C(C)(c3ccccc31)c1ccccc12
inactive: TK-10 > 100 µM | Malme-3M > 100 µM | IGROV-1 > 100 µM | HOP-62 > 100 µM | KM12 > 100 µM | OVCAR-5 > 100 µM | BT-549 > 100 µM | HL-60 55.6 µM | MDA-MB-435 > 100 µM | RPMI-8226 58.9 µM | U-251 > 100 µM | SNB-75 > 100 µM | MDA-N > 100 µM | OVCAR-3 > 100 µM | LOX IMVI > 100 µM | HCC 2998 > 100 µM | SK-MEL-5 > 100 µM | PC-3 > 100 µM | EKVX > 100 µM | 786-0 > 100 µM
